Measurements as given in paper PMC7459541, “Frog Skin-Derived Peptides Against Corynebacterium jeikeium: Correlation between Antibacterial and Cytotoxic Activities” (Antibiotics, 2020).
Where no end group is shown, it is not given here.

Key:
[1] = tested on: murine RAW 264.7 macrophages; conditions: 64 µM; cited from earlier work
C. jeikeium ATCC BAA-949 = format: cell-based, Corynebacterium jeikeium; conditions: lowest peptide concentration visually inhibiting growth after 20 h at 37 °C; TSB + 0.1% Tween 80; 2-fold serial dilutions; inoculum 2x10^6 CFU/mL diluted 1:1
Experimental: The MIC of the different AMPs against C. jeikeium ATCC BAA-949 were determined following the previously described procedure with some modifications. The bacterium was grown in TSB^+ up to an optical density (O.D.) of 0.8 (λ = 590 nm) and diluted to reach a concentration of 2× 10^6 colony forming units (CFU) per mL. Aliquots (50 µL) of this dilution were added to 50 µL of TSB^+ supplemented with 2-fold serial dilution of peptides previously dispensed in the wells of a 96 well plate. Controls were bacteria not treated with the peptides. […] MBC was defined as the lowest peptide concentration able to cause a ≥3 log reduction in the number of cells of the initial inoculum after 20 h of incubation.

Substance | cell viability [1] | MIC (C. jeikeium ATCC BAA-949) [µM]
GIFSKLAGKKIKNLLISGLKG-NH2 [Esc(1-21), esculentin-1a(1-21)] | about 50% | –
IIGPVLGLVGSALGGLLKKI-NH2 [Bombinin H2, bombinin H2] | – | 8
